Measured values from patent publication US8574608B2, “Bactericidal silver surfactant delivery into coating and polymer compositions” (Eastern Michigan Universtity, priority 2007, dated 2013).

What was measured:
[1] = system: E. coli; assay: E. coli challenged by silver surfactants in commercial alkyd paint; assay type: cell-based, Escherichia coli; details: alkyd resin paint coating, 24 h contact time; further: key: A minus sign (−) denotes no growth; a plus sign (+) denotes confluent growth; a capital P (P) denotes particle growth
[2] = system: E. coli; assay: E. coli challenged by silver surfactants in commercial acrylic paint; assay type: cell-based, Escherichia coli; details: 24 h contact time; for surviving bacteria (growth): commercial solvent borne acrylate paint coating; on surviving bacteria (growth): key: A minus sign (−) denotes no growth; a plus sign (+) denotes confluent growth; a capital P (P) denotes particle growth
[3] = system: S. aureus; assay: S. aureus challenged by silver surfactants in laboratory acrylic clearcoat; assay type: cell-based, Staphylococcus aureus; details: laboratory solvent borne acrylate clearcoat, 24 h contact time; further: key: A minus sign (−) denotes no growth; a plus sign (+) denotes confluent growth; a capital P (P) denotes particle growth
[4] = system: E. coli; assay: E. coli challenged by silver surfactants in laboratory acrylic paint; assay type: cell-based, Escherichia coli; details: 24 h contact time; for surviving bacteria (growth): laboratory solvent borne acrylate paint coating; on surviving bacteria (growth): key: A minus sign (−) denotes no growth; a plus sign (+) denotes confluent growth; a capital P (P) denotes particle growth
[5] = system: E. coli; assay: E. coli challenged by silver surfactants in commercial 2K epoxy paint; assay type: cell-based, Escherichia coli; details: 24 h contact time; for surviving bacteria (growth): commercial 2K epoxy paint coating
[6] = system: Staphylococcus aureus; assay: Growth on agar plates containing sodium surfactant; assay type: cell-based; details: agar plates with sodium surfactant, replicates 1-2 or 1-3; further: test concentration or dose not given here
[7] = system: Bacillus subtilis; assay: Growth on agar plates containing sodium surfactant; assay type: cell-based; details: agar plates with sodium surfactant, replicates 1-2 or 1-3; further: test concentration or dose not given here
[8] = system: Streptococcus viridans; assay: Growth on agar plates containing sodium surfactant; assay type: cell-based; details: agar plates with sodium surfactant; strain EM8; replicates 1-2 or 1-3
[9] = system: Streptococcus bovis; assay: Growth on agar plates containing sodium surfactant; assay type: cell-based; details: agar plates with sodium surfactant; strain EM12; replicates 1-2 or 1-3
[10] = system: Enterococcus fecalis; assay: Growth on agar plates containing sodium surfactant; assay type: cell-based; details: agar plates with sodium surfactant, replicates 1-2 or 1-3; further: test concentration or dose not given here
[11] = system: Staphylococcus epidermidis; assay: Growth on agar plates containing sodium surfactant; assay type: cell-based; details: agar plates with sodium surfactant; strain EM3/ATCC12228; replicates 1-2 or 1-3
[12] = system: Streptococcus pyogenes; assay: Growth on agar plates containing sodium surfactant; assay type: cell-based; details: agar plates with sodium surfactant; strain EM14; replicates 1-2 or 1-3
[13] = system: Streptococcus agalactiae; assay: Growth on agar plates containing sodium surfactant; assay type: cell-based; details: agar plates with sodium surfactant; strain EM13; replicates 1-2 or 1-3; further: test concentration or dose not given here
[14] = system: Micrococcus luteus; assay: Growth on agar plates containing sodium surfactant; assay type: cell-based; details: agar plates with sodium surfactant; strain EM17; replicates 1-2 or 1-3

CCCCCCCCCCCCOS(=O)(=O)[O-].[Ag+] [AgDS, Silver dodecylsufate]
surviving bacteria (growth) ([1]; 0.0012 weight % Ag in coating): + | surviving bacteria (growth) ([1]; 0.003 weight % Ag in coating): + | surviving bacteria (growth) ([1]; 0.006 weight % Ag in coating): + | surviving bacteria (growth) ([1]; 0.012 weight % Ag in coating): + | surviving bacteria (growth) ([1]; 0.03 weight % Ag in coating): − | surviving bacteria (growth) ([1]; 0.06 weight % Ag in coating): − | surviving bacteria (growth) ([1]; 0.12 weight % Ag in coating): − | silver level effective at preventing any growth ([2]; commercial acrylic paint): 0.03 % w/w | surviving bacteria (growth) ([2]; 0.0012 weight % Ag in coating): + | surviving bacteria (growth) ([2]; 0.003 weight % Ag in coating): + | surviving bacteria (growth) ([2]; 0.006 weight % Ag in coating): + | surviving bacteria (growth) ([2]; 0.012 weight % Ag in coating): + | surviving bacteria (growth) ([2]; 0.03 weight % Ag in coating): − | surviving bacteria (growth) ([2]; 0.06 weight % Ag in coating): − | surviving bacteria (growth) ([2]; 0.12 weight % Ag in coating): − | surviving bacteria (growth) ([3]; 0.0012 weight % Ag in coating): − | surviving bacteria (growth) ([3]; 0.003 weight % Ag in coating): − | surviving bacteria (growth) ([3]; 0.006 weight % Ag in coating): − | surviving bacteria (growth) ([3]; 0.012 weight % Ag in coating): − | surviving bacteria (growth) ([3]; 0.03 weight % Ag in coating): − | surviving bacteria (growth) ([3]; 0.06 weight % Ag in coating): − | surviving bacteria (growth) ([3]; 0.12 weight % Ag in coating): − | silver level effective at preventing any growth ([4]; laboratory acrylic paint): 0.03 % w/w | silver level with partial inhibition (only partial growth) ([4]; laboratory acrylic paint): 0.012% | surviving bacteria (growth) ([4]; 0.0012 weight % Ag in coating): + | surviving bacteria (growth) ([4]; 0.003 weight % Ag in coating): + | surviving bacteria (growth) ([4]; 0.006 weight % Ag in coating): + | surviving bacteria (growth) ([4]; 0.03 weight % Ag in coating): − | surviving bacteria (growth) ([4]; 0.06 weight % Ag in coating): − | surviving bacteria (growth) ([4]; 0.12 weight % Ag in coating): − | surviving bacteria (growth) ([5]; 0.0012 weight % Ag in coating): + | surviving bacteria (growth) ([5]; 0.003 weight % Ag in coating): + | surviving bacteria (growth) ([5]; 0.006 weight % Ag in coating): + | surviving bacteria (growth) ([5]; 0.03 weight % Ag in coating): − | surviving bacteria (growth) ([5]; 0.06 weight % Ag in coating): − | surviving bacteria (growth) ([5]; 0.12 weight % Ag in coating): − | silver level giving complete inhibition of growth ([5]; commercial 2K epoxy paint): 0.03 % w/w | silver level partially effective ([5]; commercial 2K epoxy paint): 0.012 % w/w

CCCCC(CC)COC(=O)CC(C(=O)OCC(CC)CCCC)S(=O)(=O)[O-].[Na+] (centres unmarked) [Compound S1]
Survival: No Growth/Full Growth ([6]; strain ATCC6538): − | Survival: No Growth/Full Growth ([6]; strain EM24/ATCC25923): − | Survival: No Growth/Full Growth ([7]; strain ATCC33): − | Survival: No Growth/Full Growth ([7]; strain EM27): − | Survival: No Growth/Full Growth [8]: − | Survival: No Growth/Full Growth [9]: − | Survival: No Growth/Full Growth ([10]; strain EM19, first line): − | Survival: No Growth/Full Growth ([10]; strain EM19, second line): − | Survival: No Growth/Full Growth [11]: − | Survival: No Growth/Full Growth [12]: − | Survival: No Growth/Full Growth [13]: − | Survival: No Growth/Full Growth [14]: −

CCCCC(CC)COP(=O)([O-])OCCC(CC)CCC.[Na+] (centres unmarked) [Compound S2]
Survival: No Growth/Full Growth ([6]; strain ATCC6538): − | Survival: No Growth/Full Growth ([6]; strain EM24/ATCC25923): − | Survival: No Growth/Full Growth ([7]; strain ATCC33): − | Survival: No Growth/Full Growth ([7]; strain EM27): − | Survival: No Growth/Full Growth [8]: − | Survival: No Growth/Full Growth [9]: − | Survival: No Growth/Full Growth ([10]; strain EM19, first line): − | Survival: No Growth/Full Growth ([10]; strain EM19, second line): − | Survival: No Growth/Full Growth [11]: − | Survival: No Growth/Full Growth [12]: − | Survival: No Growth/Full Growth [13]: − | Survival: No Growth/Full Growth [14]: −

CC(C)CC(C)OC(=O)CC(C(=O)OC(C)CC(C)C)S(=O)(=O)[O-].[Na+] (centres unmarked) [Compound S4]
Survival: No Growth/Full Growth ([6]; strain ATCC6538): − | Survival: No Growth/Full Growth ([6]; strain EM24/ATCC25923): − | Survival: No Growth/Full Growth ([7]; strain ATCC33): − | Survival: No Growth/Full Growth ([7]; strain EM27): − | Survival: No Growth/Full Growth [8]: + | Survival: No Growth/Full Growth [9]: − | Survival: No Growth/Full Growth ([10]; strain EM19, first line): − | Survival: No Growth/Full Growth ([10]; strain EM19, second line): + | Survival: No Growth/Full Growth [11]: − | Survival: No Growth/Full Growth [12]: − | Survival: No Growth/Full Growth [13]: − | Survival: No Growth/Full Growth [14]: −
